Publication PMC5923269, “The Ustilago maydis repetitive effector Rsp3 blocks the antifungal activity of mannose-binding maize proteins” (Nature Communications, 2018)

Target: T1, AFP1 (Anti-Fungal Protein 1; AFP1-His) (Zea mays, UniProt B4FUR2)
T1 construct: full-length with own signal peptide, secreted; C-terminal His tag; transient expression in Nicotiana benthamiana, NTA-purified from apoplastic fluid; two DUF26 domains
T1 sequence (B4FUR2 26-268): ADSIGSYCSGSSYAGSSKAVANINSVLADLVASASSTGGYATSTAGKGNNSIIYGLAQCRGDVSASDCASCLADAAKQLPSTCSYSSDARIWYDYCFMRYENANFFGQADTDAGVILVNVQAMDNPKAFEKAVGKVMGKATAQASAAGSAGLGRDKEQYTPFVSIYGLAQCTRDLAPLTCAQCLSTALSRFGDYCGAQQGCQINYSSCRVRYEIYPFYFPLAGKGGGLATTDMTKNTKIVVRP
Assay: pull-down on mannose-agarose beads, anti-His western blot
Assay type: binding
Conditions: mannose immobilised on agarose; 10 mM Tris-HCl pH 7.5, 20 mM CaCl2, 1 M NaCl, 0.05% Tween-20, 4 °C, 1 h

Structure (SMILES): OC[C@H]1OC(O)[C@@H](O)[C@@H](O)[C@@H]1O (stereo partly shown) [mannose]
- pull-down on mannose-agarose beads, anti-His western blot: strong binding was observed for wild type AFP1-His
